Values of other authors, collected in US20260258132A1, “TREATMENT OF LUNG CANCER WITH ANTI-PD-1 AND CHEMOTHERAPY” (BeOne Medicines I GmbH, priority 2023, published 2026).

B1: adebrelimab plus chemotherapy: adebrelimab plus chemotherapy, prior study compared by RMST of OS (antibody, chains of the INN, looked up, V domains shown)
VH: QVQLVQSGAEVKKPGASVKVSCKASGYTFTSYWMHWVRQAPGQGLEWMGRIGPNSGFTSYNEKFKNRVTMTRDTSTSTVYMELSSLRSEDTAVYYCARGGSSYDYFDYWGQGTTVTVSS
VL: DIVLTQSPASLAVSPGQRATITCRASESVSIHGTHLMHWYQQKPGQPPKLLIYAASNLESGVPARFSGSGSGTDFTLTINPVEAEDTANYYCQQSFEDPLTFGQGTKLEIK
modifications: plus chemotherapy
notes: adebrelimab plus chemotherapy, prior study compared by RMST of OS

Tested on: ES-SCLC
Details: cited from earlier work; for RMST analysis: difference in OS in prior studies: versus placebo plus chemotherapy

Molecule | median OS in the previous study (first-line treatment for ES-SCLC) [months] | OS HR in the previous study (pembrolizumab arm versus placebo arm, 95% CI 0.64-0.98) | RMST analysis: difference in OS in prior studies [month]
pembrolizumab plus chemotherapy: pembrolizumab (humanized IgG4 anti-PD-1 antibody) plus chemotherapy, first-line ES-SCLC, previous study | 10.8 | 0.80 | 1.2
B1 |  |  | 2.3
